Reference: BindingDB's records for doi:10.1016/j.bmc.2003.11.015 (Bristol-Myers Squibb Pharmaceutical Research Institute, 2004)
pKi: −log10 of the molar value. Where a name gives a salt, the structure may show the parent alone.

Key:
D(2) dopamine receptor [1] = molecular target: D(2) dopamine receptor (Rattus norvegicus, UniProt P61169)
D(1A) dopamine receptor = D(1A) dopamine receptor (Rattus norvegicus, UniProt P18901)
D(2) dopamine receptor [2] = molecular target: D(2) dopamine receptor (Homo sapiens, UniProt P14416)
Sequence of D(2) dopamine receptor (Homo sapiens, UniProt P14416) (P14416 whole entry): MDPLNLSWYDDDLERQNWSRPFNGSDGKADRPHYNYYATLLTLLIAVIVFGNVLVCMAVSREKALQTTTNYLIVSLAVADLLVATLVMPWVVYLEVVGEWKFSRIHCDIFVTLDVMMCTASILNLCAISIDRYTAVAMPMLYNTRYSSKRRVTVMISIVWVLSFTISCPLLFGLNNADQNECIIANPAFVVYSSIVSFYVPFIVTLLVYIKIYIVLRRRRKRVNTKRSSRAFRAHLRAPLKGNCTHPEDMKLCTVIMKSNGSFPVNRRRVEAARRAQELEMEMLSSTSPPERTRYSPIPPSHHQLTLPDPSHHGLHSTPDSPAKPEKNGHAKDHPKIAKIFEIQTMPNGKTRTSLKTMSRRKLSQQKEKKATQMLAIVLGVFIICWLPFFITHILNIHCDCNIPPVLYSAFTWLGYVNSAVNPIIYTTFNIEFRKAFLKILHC

Sequence of D(1A) dopamine receptor (P18901 whole entry): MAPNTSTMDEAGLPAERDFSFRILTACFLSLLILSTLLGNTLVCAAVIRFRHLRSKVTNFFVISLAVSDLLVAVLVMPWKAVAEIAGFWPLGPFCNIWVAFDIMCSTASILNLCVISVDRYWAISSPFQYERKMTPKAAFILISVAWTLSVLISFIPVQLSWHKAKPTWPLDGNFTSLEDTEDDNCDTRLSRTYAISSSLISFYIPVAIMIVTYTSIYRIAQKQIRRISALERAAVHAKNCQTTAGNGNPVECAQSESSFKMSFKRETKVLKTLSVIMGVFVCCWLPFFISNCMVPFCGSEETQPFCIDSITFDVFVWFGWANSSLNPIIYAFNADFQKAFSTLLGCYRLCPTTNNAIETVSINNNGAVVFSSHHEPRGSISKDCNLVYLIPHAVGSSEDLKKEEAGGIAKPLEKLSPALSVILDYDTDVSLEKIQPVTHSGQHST
Sequence of D(2) dopamine receptor (Rattus norvegicus, UniProt P61169) (P61169 whole entry): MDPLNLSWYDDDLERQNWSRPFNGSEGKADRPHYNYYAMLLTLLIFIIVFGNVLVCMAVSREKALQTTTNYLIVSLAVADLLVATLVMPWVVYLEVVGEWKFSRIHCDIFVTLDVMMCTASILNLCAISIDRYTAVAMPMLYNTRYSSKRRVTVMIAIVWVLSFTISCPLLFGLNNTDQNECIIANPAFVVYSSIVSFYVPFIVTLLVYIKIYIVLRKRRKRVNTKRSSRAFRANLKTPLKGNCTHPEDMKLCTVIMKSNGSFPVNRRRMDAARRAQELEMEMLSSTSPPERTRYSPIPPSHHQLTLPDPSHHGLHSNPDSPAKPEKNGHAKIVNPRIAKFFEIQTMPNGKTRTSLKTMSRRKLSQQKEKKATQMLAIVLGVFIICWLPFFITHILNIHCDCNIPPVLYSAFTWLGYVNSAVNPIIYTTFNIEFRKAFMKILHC

pKi (D(2) dopamine receptor [1]) | pKi (D(1A) dopamine receptor) | pKi (D(2) dopamine receptor [2]) | Compound
7.80 | 5.82 | – | Oc1cc(Cl)c2c(c1O)Cc1cccc3c1[C@H]2CNC3 (racemic) [CAS_0]
7.46 | 6.27 | – | Oc1ccc2c(c1O)Sc1cccc3c1C2CNC3 (centres undefined) [1,2,3,11b-Tetrahydro[1]benzothiopyrano[4,3,2-de]isoquinolin-8,9-diol]
6.41 | 6.06 | – | CC1(C)c2cccc3c2[C@@H](CNC3)c2ccc(O)c(O)c21 (racemic) [NSC_0]
– | 5.02 | < 5.00 | CC1c2cccc3c2[C@@H](CN1C)c1ccc(O)c(O)c1C3 (mixture of isomers) [NSC_0]
– | 5.70 | 7.40 | CC1NC[C@H]2c3ccc(O)c(O)c3Cc3cccc1c32 (mixture of isomers) [(+/-)-3-methyldinapsoline hydrobromide]
– | 7.85 | 7.57 | CCc1ccc2c3c1Cc1c(ccc(O)c1O)[C@@H]3CNC2 [6-ethyldinapsoline hydrobromide]
7.82 | 7.14 | – | Oc1ccc2c(c1O)Cc1ccc(O)c3c1[C@H]2CNC3 [4-hydroxydinapsoline hydrobromide]
7.55 | 7.16 | – | Oc1ccc2c(c1O)Cc1ccc(F)c3c1[C@H]2CNC3 [NSC_0]
6.80 | 6.86 | – | CC1c2cccc3c2[C@@H](CNC3)c2ccc(O)c(O)c21 (mixture of isomers) [(+/-)-7-methyldinapsoline hydrobromide]
– | 6.52 | – | CCCCC1NC[C@H]2c3ccc(O)c(O)c3Cc3cccc1c32 (mixture of isomers) [(+/-)-3-n-butyldinapsoline hydrobromide]
8.15 | – | – | Oc1ccc2c(c1O)Cc1c(F)ccc3c1[C@H]2CNC3 [NSC_0]
6.36 | 6.37 | – | CCC1c2cccc3c2[C@@H](CNC3)c2ccc(O)c(O)c21 (mixture of isomers) [(+/-)-7-ethyldinapsoline hydrobromide]
6.00 | 5.62 | – | COC(=O)CC1c2cccc3c2[C@@H](CNC3)c2ccc(O)c(O)c21 (mixture of isomers) [(+/-)-7-methoxycarbonylmethyldinapsoline]
7.15 | 6.42 | – | CN1Cc2cccc3c2[C@@H](C1)c1ccc(O)c(O)c1C3 (racemic) [NSC_0]
– | 5.70 | 7.82 | CCCN1Cc2cccc3c2[C@@H](C1)c1ccc(O)c(O)c1C3 (racemic) [(+/-)-2-propyldinapsoline hydrobromide]
7.11 | 6.47 | – | Oc1ccc2c(c1O)Cc1cccc3c1[C@H]2CNC3C(F)(F)C(F)(F)C(F)(F)C(F)(F)F (mixture of isomers) [NSC_0]
6.77 | 5.52 | – | Oc1ccc2c(c1O)Cc1c(F)ccc3c1C2CNC3 (centres undefined) [NSC_0]
5.96 | < 5.00 | – | O=[N+]([O-])c1cc(O)c(O)c2c1[C@@H]1CNCc3cccc(c31)C2 (racemic) [NSC_0]
